Reference: patent US9499495B2, “Quinazolines and azaquinazolines as dual inhibitors of RAS/RAF/MEK/ERK and PI3K/AKT/PTEN/mTOR pathways” (Asana Biosciences, LLC, priority 2013, dated 2016)

How the values were obtained:
[1] = target: T1, B-RAFV600E (Homo sapiens, UniProt P15056, V600E); assay: B-RAFV600E radiometric assay; type: biochemical; conditions: read-out: Kinase assay B-Raf
T1 construct: purchased Millipore, USA 14-557
Experimental: Compound inhibition for B-RAFV600E was determined through radiometric assay using a BRAF enzyme (Catalog No. 14-557, Millipore, USA) and MEK-K97M protein as a substrate (Catalog No. 0785-0000-1, ProqQinase GmbH, Germany). The B-RAF kinase catalyzes the phosphorylation of MEK protein in the presence of gamma ATP (PLC-101, Jonaki, CCMB, Hyderabad), cold ATP and Mg^2+.
The phosphorylated protein product is detected by the scintillation counter Topcount® machine (Perkin Elmer). This assay has been adapted from the method previously reported by Yeh et al. (2007, Clinical Cancer Research; 13, 1576-1583). The assay measures the B-RAF mediated transfer of 32P from the gamma position of radiolabeled ATP onto MEK1-KD. The labeled phosphorylated protein was measured in MicroBeta® Trilux Counter (Perkin Elmer). The assay was validated with reference compounds RAF1 Kinase Inhibitor I and ZM 336372 inhibitor which are reported to be inhibitors of B-RAF enzyme (Lackey, 2000, Medicinal Chemistry Letters; 10(3):223-226; Kupcho, “Fluorescent High throughput kinase cascade assays for inhibitor characterization, RAF-MEK-ERK pathway, www.invitrogen.com, and Hall-Jackson, 1999, Chemical Biology; 6(8):559-568). B-RAF enzyme mixture (13 μL) was added to compound wells containing 2 μL of the NCE in 1% DMSO and incubated for 45 min at rt on a shaking incubator at 300 rpm. MEK-K97M (0.5 μg) and cold ATP to a final concentration of 5 μM, and hot ATP 0.1 μCi in a volume of 10 μL was added to each well and incubated for 2 h at rt on a shaking incubator at 300 rpm. The reaction was stopped by addition of […] (13 μL) containing ATP (1 mM: 495 μL 1N HCl and 5 μL 100 mM ATP). Aliquot (30 μL) was then transferred to the center of a 2 cm×2 cm P81 paper. P81 paper was washed 8×5 min each with ortho-phosphoric acid (0.5%). P81 papers are washed twice with acetone for […] Assay squares were allowed to dry for […] at 37° C. P81 paper are transferred to Optiplate™ (Perkin Elmer) and counted in a Topcount® counter (Perkin Elmer). Data was plotted against the compound concentration to generate dose-response curves and IC50 values were determined using a sigmoidal dose response curve fit GraphPad Prism® v5 software.

[2] = target: T2, mTOR kinase (Homo sapiens, UniProt P42345); assay: mTOR kinase TR-FRET assay; type: biochemical
T2 construct: purchased Millipore, US
T2 sequence (P42345 1362-2549 limits assumed): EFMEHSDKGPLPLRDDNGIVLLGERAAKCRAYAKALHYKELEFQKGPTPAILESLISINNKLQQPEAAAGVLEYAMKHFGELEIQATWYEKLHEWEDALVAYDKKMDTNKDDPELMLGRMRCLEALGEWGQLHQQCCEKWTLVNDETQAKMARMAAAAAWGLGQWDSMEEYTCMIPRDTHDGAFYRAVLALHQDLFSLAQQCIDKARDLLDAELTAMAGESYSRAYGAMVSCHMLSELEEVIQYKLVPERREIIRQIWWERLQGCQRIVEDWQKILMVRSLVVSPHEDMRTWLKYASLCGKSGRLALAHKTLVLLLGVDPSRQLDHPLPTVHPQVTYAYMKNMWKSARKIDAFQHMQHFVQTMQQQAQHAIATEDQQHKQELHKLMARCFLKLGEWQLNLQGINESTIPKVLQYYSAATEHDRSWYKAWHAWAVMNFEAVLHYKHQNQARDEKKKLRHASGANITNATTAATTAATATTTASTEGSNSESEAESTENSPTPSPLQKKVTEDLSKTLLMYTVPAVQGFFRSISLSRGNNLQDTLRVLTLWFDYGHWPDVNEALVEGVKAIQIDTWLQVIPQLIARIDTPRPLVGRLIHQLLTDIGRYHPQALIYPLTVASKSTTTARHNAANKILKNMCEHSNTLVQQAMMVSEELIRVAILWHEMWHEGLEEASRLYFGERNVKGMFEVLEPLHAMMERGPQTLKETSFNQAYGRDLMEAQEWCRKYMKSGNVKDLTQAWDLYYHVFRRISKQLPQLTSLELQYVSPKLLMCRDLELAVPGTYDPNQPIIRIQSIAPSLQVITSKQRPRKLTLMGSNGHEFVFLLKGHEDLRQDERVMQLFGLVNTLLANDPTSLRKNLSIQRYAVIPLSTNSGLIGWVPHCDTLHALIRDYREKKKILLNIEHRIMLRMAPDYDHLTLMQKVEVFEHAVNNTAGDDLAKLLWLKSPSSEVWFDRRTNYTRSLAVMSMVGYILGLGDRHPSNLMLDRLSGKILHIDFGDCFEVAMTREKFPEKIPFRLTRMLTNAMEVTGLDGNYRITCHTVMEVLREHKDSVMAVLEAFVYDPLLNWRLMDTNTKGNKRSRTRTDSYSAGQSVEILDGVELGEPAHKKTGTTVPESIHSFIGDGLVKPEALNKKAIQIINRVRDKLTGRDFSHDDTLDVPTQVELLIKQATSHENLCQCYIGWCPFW
Experimental: Compound inhibition for mTOR kinase was determined by homogeneous TR-FRET assay using ULight-p70 S6K (Thr 389) peptide as substrate. mTOR enzyme (Millipore, US; […]) was used in the assay. The reaction buffer was HEPES (50 mM, pH 7.5), EGTA (1 mM), and MnCl2 (3 mM). Test compound was pre-incubated with mTOR for 30 min followed by 50 nM ULight-p70 S6K (Thr 389) peptide along with ATP (20 μM).
After incubating the reaction mixture for 30 min, Eu-labeled anti-phospho-substrate antibody (1 nM, Perkin Elmer, USA) was added. Fluorescence emission at […] was measured upon excitation at 340 nm. The compound dilution was carried out in 100% DMSO followed by a buffer dilution. The kinase reaction was incubated for 1 h at rt followed by the addition of substrate-ATP mix and incubated at rt for 1 h. The reaction was terminated by the addition of EDTA followed by the addition of detection mix. IC50 values were determined using a sigmoidal dose response curve fit, GraphPad Prism® v5 software.

[3] = test system: pERK in A375 cells; assay: In Cell Western (ICW) assay, pERK in A375 cells; type: cell-based; conditions: Homo sapiens, A-375, 3 h treatment
Experimental: Cell lines A375, A2058 and RKO obtained from the ATCC as provided above, were grown, and after attaining ˜80% confluency were trypsinized, centrifuged and resuspended in fresh media. The cells were seeded at the specified density (20,000 to 50,000) in a 96-well format black-well clear bottom plate (Corning) and incubated overnight at 37° C. in a 5% CO2 incubator. The next day, compound dilutions of test compounds were prepared in 100% DMSO followed by dilutions in respective media. Treatment of test compounds was performed for 3 h at 37° C. in 5% CO2 incubator. Following 3 h drug treatment, the conditional media was discarded and the cells were washed once with cPBS (PBS containing 0.1% magnesium chloride hexahydrate and 0.1% anhydrous calcium chloride) and fixed with 4% paraformaldehyde in cPBS for 1 h at rt. After fixing, the cells were given three washes using cPBST (cPBS containing 0.1% Triton™ X-100 reagent) and then blocked using blocking solution (5% skimmed milk powder or 5% BSA prepared in cPBST) for 2 h at rt with shaking at 300 rpm. The cells were again washed thrice with cPBST and incubated with primary antibody phospho-p44/42 MAPK(Erk1/2)(Thr202/204) antibody (Cell Signaling, Catalog # 9101L), phospho S6 ribosomal protein (Cell Signaling, Catalog #4858L), phospho AKT (Thr 308) (Cell Signaling, Catalog #9275) or phospho AKT (Ser 473) (Cell Signaling, Catalog #4060L) in specified dilutions (1:500-1:2500), prepared in respective blocking solutions, in a racker overnight at 4° C. The next day, the cells were washed with 1× Delfia® wash buffer (4×1 wash) and incubated with secondary antibody (Delfia®-Eu-N1 labeled anti-rabbit antibody; PerkinElmer, Catalog #AD0105; dilutions: 1:2000 to 1:6000 in Delfia® assay buffer (PerkinElmer, Catalog #1244-111)) for 2 h at rt in the dark at 300 rpm. The cells were then given four washes with 1× Delfia® wash buffer and incubated with Wallac Delfia® Enhancement solution (100 μL; PerkinElmer, Catalog #1244-105) for 20 min at rt in the dark at 300 rpm. The fluorescence emission was then read at 615 nm with an excitation wavelength of 340 nm using a Victor V5 Fluorometer (Perkin Elmer, US). The cells were then washed once with 1×cPBS and incubated with 100 μL of 0.5 mg/mL of Hoechst 33258 dye prepared in cPBS and read at 460 nm with 355 nm excitation, thereby evaluating the correction factor.
The % inhibition for the test compounds of formula (I) (new chemical entities (NCEs)) was calculated keeping DMSO control as 0% and the IC50 values were determined using sigmoidal dose response curve fit in GraphPad Prism® v5 software.

[4] = test system: A375 cells; assay: XTT assay for cell viability, A375 cells; type: cell-based; conditions: Homo sapiens, A-375, 72 h
Experimental: Cell lines (A375 ATCC No. CRL-1619, A2058 ATCC No. CRL-11147 and RKO ATCC No. CRL-2577, American Type Culture Collection (ATCC), Manassas Va.) once attaining ˜80% confluency were trypsinized, centrifuged and resuspended in fresh media. Cells (1000-2000/per well) were seeded in 96-well plate and incubated over-night at 37° C. in a 5% CO2 incubator. Compound dilutions were prepared in 100% DMSO followed by dilutions in the respective media. The cells were treated with NCEs for 72 h at 37° C. in 5% CO2 incubator. After 72 h, freshly prepared XTT (1 mg/ml)/PMS (25 μM) solution was added, incubated for 2 to 3 h at 37° C. and the absorbance was measured at 450 nm using an ELISA plate reader. Keeping DMSO control as 100%, the effect of the compound to inhibit the cell proliferation was calculated and the GI50 values were determined using sigmoidal dose response curve fit in GraphPad Prism® v5 software.

T1 sequence (P15056 416-766 V600E limits assumed): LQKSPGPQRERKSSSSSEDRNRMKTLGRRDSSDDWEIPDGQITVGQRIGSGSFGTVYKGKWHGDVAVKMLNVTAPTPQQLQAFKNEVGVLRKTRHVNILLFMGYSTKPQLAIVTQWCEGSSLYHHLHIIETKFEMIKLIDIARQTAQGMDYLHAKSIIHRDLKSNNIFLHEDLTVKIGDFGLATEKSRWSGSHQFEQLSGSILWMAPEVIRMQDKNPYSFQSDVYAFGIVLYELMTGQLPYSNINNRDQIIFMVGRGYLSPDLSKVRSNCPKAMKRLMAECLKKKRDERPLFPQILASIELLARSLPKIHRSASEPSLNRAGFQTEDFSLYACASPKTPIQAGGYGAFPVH

Structure (SMILES) | IC50 [1] | IC50 [2] | IC50 [3] | IC50 [4]
COc1cc(-c2cccc(NS(=O)(=O)c3ccccc3F)c2F)cc2c(N3CCOCC3)nc(-c3cnc(N)nc3)nc12 [Example 47, N-(3-(2-(2-aminopyrimidin-5-yl)-8-methoxy-4-morpholinoquinazolin-6-yl)-2-fluorophenyl)-2-fluorobenzenesulfonamide] | 1 to 100 nM | 100 to 1000 nM | 100 to 1000 nM | 100 to 1000 nM
COc1cc(-c2cccc(NS(=O)(=O)c3cccs3)c2F)cc2c(N3CCOCC3)nc(-c3ccc(N)nc3)nc12 [Example 38, N-(3-(2-(6-aminopyridin-3-yl)-8-methoxy-4-morpholinoquinazolin-6-yl)-2-fluorophenyl)thiophene-2-sulfonamide] | 1 to 100 nM | 100 to 1000 nM | 1 to 100 nM | 100 to 1000 nM
Nc1ccc(-c2nc(N3CCOCC3)c3cc(-c4cccc(NS(=O)(=O)CCCF)c4F)cc(N4CCCC4)c3n2)cn1 [Example 70, N-(3-(2-(6-aminopyridin-3-yl)-4-morpholino-8-(pyrrolidin-1-yl)quinazolin-6-yl)-2-fluorophenyl)-3-fluoropropane-1-sulfonamide] | 1 to 100 nM | 100 to 1000 nM | 100 to 1000 nM | 1 to 100 nM
COc1cc(-c2cccc(NS(=O)(=O)CCCF)c2F)cc2c(N3CCOCC3)nc(-c3cnc(N)nc3)nc12 [Example 27, N-(3-(2-(2-aminopyrimidin-5-yl)-8-methoxy-4-morpholinoquinazolin-6-yl)-2-fluorophenyl)-3-fluoropropane-1-sulfonamide] | 1 to 100 nM | 100 to 1000 nM | 1 to 100 nM | 100 to 1000 nM
CCCS(=O)(=O)Nc1cccc(-c2cc(OC)c3nc(-n4c(C(F)F)nc5ccccc54)nc(N4CCOCC4)c3c2)c1F [Example 9, N-(3-(2-(2-(difluoromethyl)-1H-benzo[d]imidazol-1-yl)-8-methoxy-4-morpholinoquinazolin-6-yl)-2-fluorophenyl)propane-1-sulfonamide] | 1 to 100 nM | 100 to 1000 nM | 100 to 1000 nM | 100 to 1000 nM
Nc1ccc(-c2nc(N3CCOCC3)c3cc(-c4cccc(NS(=O)(=O)CCCF)c4F)ccc3n2)cn1 [Example 46, N-(3-(2-(6-aminopyridin-3-yl)-4-morpholinoquinazolin-6-yl)-2-fluorophenyl)-3-fluoropropane-1-sulfonamide] | 1 to 100 nM | 100 to 1000 nM | 1 to 100 nM | 100 to 1000 nM
COc1cc(-c2cccc(NS(=O)(=O)c3c(F)cccc3F)c2F)cc2c(N3CCOCC3)nc(-c3cnc(N)nc3)nc12 [Example 13, N-(3-(2-(2-aminopyrimidin-5-yl)-8-methoxy-4-morpholinoquinazolin-6-yl)-2-fluorophenyl)-2,6-difluorobenzenesulfonamide] | 1 to 100 nM | 100 to 1000 nM | 100 to 1000 nM | 100 to 1000 nM

More lines, now with the values ahead:

IC50 [1] | IC50 [2] | IC50 [3] | IC50 [4] | Structure (SMILES)
1 to 100 nM | 100 to 1000 nM | 1 to 100 nM | 100 to 1000 nM | COc1cc(-c2cccc(NS(=O)(=O)c3ccccc3F)c2F)cc2c(N3CCOCC3)nc(-c3ccc(N)nc3)nc12 [Example 29, N-(3-(2-(6-aminopyridin-3-yl)-8-methoxy-4-morpholinoquinazolin-6-yl)-2-fluorophenyl)-2-fluorobenzenesulfonamide]
1 to 100 nM | 1 to 100 nM | 1 to 100 nM | 100 to 1000 nM | CCCS(=O)(=O)Nc1ccc(F)c(-c2cc(OC)c3nc(-c4ccc(N)nc4)nc(N4CCOCC4)c3c2)c1F [Example 75, N-(3-(2-(6-aminopyridin-3-yl)-8-methoxy-4-morpholinoquinazolin-6-yl)-2,4-difluorophenyl)propane-1-sulfonamide]
1 to 100 nM | 1 to 100 nM | 100 to 1000 nM | 100 to 1000 nM | CCCS(=O)(=O)Nc1cccc(-c2cc(OC)c3nc(-c4ccc(N)nc4)nc(N4CCOCC4)c3c2)c1F [Example 17, N-(3-(2-(6-aminopyridin-3-yl)-8-methoxy-4-morpholinoquinazolin-6-yl)-2-fluorophenyl)propane-1-sulfonamide]
100 to 1000 nM | 100 to 1000 nM | 100 to 1000 nM | 100 to 1000 nM | CCCS(=O)(=O)Nc1cccc(-c2cc(OC)c3nc(-c4ccc(N)nc4F)nc(N4CCOCC4)c3c2)c1F [Example 18, N-(3-(2-(6-amino-2-fluoropyridin-3-yl)-8-methoxy-4-morpholinoquinazolin-6-yl)-2-fluorophenyl)propane-1-sulfonamide]
1 to 100 nM | 100 to 1000 nM | 100 to 1000 nM | 100 to 1000 nM | CCCS(=O)(=O)Nc1ccc(Cl)c(-c2cc(OC)c3nc(-c4ccc(N)nc4)nc(N4CCOCC4)c3c2)c1F [Example 80, N-(3-(2-(6-aminopyridin-3-yl)-8-methoxy-4-morpholinoquinazolin-6-yl)-4-chloro-2-fluorophenyl)propane-1-sulfonamide]
